From patent US11773086B2, “Fungal modulators” (TRUSTEES OF BOSTON UNIVERSITY, priority 2020, dated 2023)

Legend:
C. auris efflux = test: Nile red accumulation assay (flow cytometry); assay type: cell-based, Candida auris
Method: FIGS. 5A, 5B and 6 illustrate that azoffluxin increases fluconazole (FLC) bioavailability by inhibiting Cdr1-mediated efflux in C. auris. FIG. 5A show C. auris strains grown to exponential phase and treated with 50 μM azoffluxin for 10 minutes when indicated, followed by addition of Nile red for 20 minutes. Cells were then imaged on the DIC and DsRed channels at equivalent exposure times. FIG. 5B: depicts a flow cytometer and histograms of the cells, showing the fluorescence on the PE channel per event for ˜20,000 events. […] FIG. 6 illustrates azoffluxin increases fluconazole (FLC) bioavailability by inhibiting Cdr1-mediated efflux in C. auris. Dose response assays were conducted with a C. auris parental strain, a strain with the efflux pump gene CDR1 deleted, and a strain with the efflux pump CDR4-1 deleted. FLC was titered in a two-fold dilution on the x-axis in the absence and presence of 50 μM azoffluxin. Growth was measured at 48 hours using OD600 and normalized to a no drug control well (see color bar).
Cellular efflux was determined by measuring Nile red accumulation, as previously described. Cells were subcultured from an OD600 0.1 in YPD for 4 hours until exponential phase was reached. […] To quantify fluorescence, a CytoFlex Flow Cytometer (Beckman Coulter) was used. […] Each sample was run using the CytExpert Software until ˜20,000 events had been recorded. […]

[1] = system: C. auris in co-culture with 293T cells; test: Co-culture of luciferase-expressing 293T cells with C. auris; assay type: cell-based, Candida auris; conditions: azoffluxin and low fluconazole, 48 hours
Method: FIG. 10A depicts mammalian embryonic kidney (293T) cells expressing luciferase used to quantify mammalian cell growth in co-culture. Mammalian cells were seeded in 384-well plates in DMEM medium at 5×10^5 cells/mL overnight. After 24 hours the indicated concentration of compound (⋅ indicates combo treatment concentrations) was added along with 2.5×10^3 cells/mL of C. auris. Co-cultures were incubated for 48 hours at 37° C. and then the luminescence was measured as an output of mammalian cell growth. Error represents standard deviation between technical quadruplicates, (***) indicates a p-value<0.001 between 293T cells alone and co-culture growth for each condition. […] FIG. 10C depicts checkerboard assays performed as described in FIG. 2B with C. auris Clade IV isolate B11801. Relative growth was measured after 24 hours using OD600 and normalized to no-drug control wells (see color bar). The FICI calculated for each checkerboard is shown in the top right of each plot, with values<0.5 indicating synergy. FIG. 10D depicts kidney fungal burden (CFU) in mice from each treatment group (n=3) that had been infected with C. auris B11801. […] The significance of differences between combination treatment and treatment with each compound alone was determined by two-tailed unpaired student t-test, (***) p-value<0.001. […]

## C=C(C)C[C@@H](O)COc1cc2c(cc1C1(c3cc4c(cc3OC[C@H](O)CC(=C)C)OCO4)C(=O)Nc3cc(F)ccc31)OCO2 [CMLD012336]
C. auris efflux; 50 μM azoffluxin, C. auris Ci6684
  increase in relative cell-associated Nile red signal: 42 fold
C. auris efflux; Clade III isolates B11221 and B11222
  increase in Nile red accumulation: 36-40 fold
[1]
  rescue of human cells in co-culture (luminescence): dramatic rescue of the human cells
